# Experiment: recombinant UMI read abundance after kanamycin selection (control-corrected) (log10(CPM+1)); higher = more efficient recombination; extreme values may be limits of the assay; sequences stand for … in AGTGCAGAGAAAATCGGCCAGTTTTCTCTGCCTGCAGTCCGCATGCCGTGGGACCCCTTGGGTTCTAACCTGTTGCCTAGATTTATGCAGCGGACTGCCTTTCTCCCAAAGTGATAAACCGG…AGGTTGGTTTCACT; site = the 11-nt donor
# Summary of the method: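 Under IPTG (0.07 mM) plus kanamycin, or without selection, Escherichia coli carrying a UMI-tagged donor and donor-binding-loop pair library and a target plasmid for the IS621 bridge recombinase were plated in two replicates. Recombinant UMIs were PCR-amplified across the donor–target junction and sequenced. Counts were converted to CPM, averaged over replicates, scaled by control-derived factors and reported as log10(CPM+1).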
# 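Also: IS621 bridge recombinase in Escherichia coli cells against a fixed T5 target plasmid.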
row,Sequence,recombinant UMI read abundance (log10)
1,CTGCAACCATGGACCGGTTTTCCCGGTAATCCGTATTTGCT (site CTGCTACCTAG),0
2,CTGCATCCATGGACCGGTTTTCCCGGTAATCCGTATTTGTT (site CGGAATCCTAA),0.00365
3,CTGCATCCATGGACCGGTTTTCCCGGTAATCCGTATTTGTT (site CTGCATCCTAA),0.855
4,CTGCGACCATGGACCGGTTTTCCCGGTAATCCGTATTTGCT (site CTGCAACCTAG),0
5,CTGCGACCATGGACCGGTTTTCCCGGTAATCCGTATTTGCT (site CTGCCACCTAG),0.0046
6,CTGCGACCATGGACCGGTTTTCCCGGTAATCCGTATTTGCT (site CTGCGACCTAG),0
7,CTGCGACCATGGACCGGTTTTCCCGGTAATCCGTATTTGCT (site CTGCTACCTAG),0
8,CTGCGCTCATGGACCGGTTTTCCCGGTAATCCGTATTTGCG (site CTGCGCTCTCG),1.11
9,CTGCGTGCATGGACCGGTTTTCCCGGTAATCCGTATTTGTA (site CTGCGTGCTTA),2.28
10,CTGCTATCATGGACCGGTTTTCCCGGTAATCCGTATTTGAC (site CTAGTATCTGT),0
11,CTGCTATCATGGACCGGTTTTCCCGGTAATCCGTATTTGAC (site CTGCTATCTGT),1.26
12,CTGCTCCCATGGACCGGTTTTCCCGGTAATCCGTATTTGCT (site CTGCTACCTAG),0
13,CTGCTCCCATGGACCGGTTTTCCCGGTAATCCGTATTTGCT (site CTGCTCCCTAG),1.78
14,CTGCTCCCATGGACCGGTTTTCCCGGTAATCCGTATTTGCT (site CTGCTGCCTAG),0
15,CTGCTCCCATGGACCGGTTTTCCCGGTAATCCGTATTTGCT (site CTGCTTCCTAG),0
16,CTGCTGCCATGGACCGGTTTTCCCGGTAATCCGTATTTGGC (site CTGCTGCCTGC),0
17,CTGGAAACATGGACCGGTTTTCCCGGTAATCCGTATTTGTA (site CTGGAAACTTA),2.14
18,CTGGAAACATGGACCGGTTTTCCCGGTAATCCGTATTTGTA (site CTGGAAACTTC),0.294
19,CTGGAAACATGGACCGGTTTTCCCGGTAATCCGTATTTGTA (site CTGGAAACTTG),1.22
20,CTGGAAACATGGACCGGTTTTCCCGGTAATCCGTATTTGTA (site CTGGAAACTTT),1.81
21,CTGGAAGCATGGACCGGTTTTCCCGGTAATCCGTATTTGCA (site CTGGAAACTTG),0.803
22,CTGGAAGCATGGACCGGTTTTCCCGGTAATCCGTATTTGCA (site CTGGAACCTTG),0
23,CTGGAAGCATGGACCGGTTTTCCCGGTAATCCGTATTTGCA (site CTGGAAGCTTG),1.04
24,CTGGAAGCATGGACCGGTTTTCCCGGTAATCCGTATTTGCA (site CTGGAATCTTG),3.42
25,CTGGACACATGGACCGGTTTTCCCGGTAATCCGTATTTGAG (site CTGGACACTCT),1.47

row,Sequence,recombinant UMI read abundance (log10)
1,CTGGAGGCATGGACCGGTTTTCCCGGTAATCCGTATTTGTG (site ATGGAGGCTCA),0.00337
2,CTGGAGGCATGGACCGGTTTTCCCGGTAATCCGTATTTGTG (site CTGGAGGCTCA),1.02
3,CTGGAGGCATGGACCGGTTTTCCCGGTAATCCGTATTTGTG (site GTGGAGGCTCA),0.0315
4,CTGGAGGCATGGACCGGTTTTCCCGGTAATCCGTATTTGTG (site TTGGAGGCTCA),0.0143
5,CTGGATACATGGACCGGTTTTCCCGGTAATCCGTATTTGCA (site CTGGAAACTTG),1.14
6,CTGGATACATGGACCGGTTTTCCCGGTAATCCGTATTTGCA (site CTGGACACTTG),1.92
7,CTGGATACATGGACCGGTTTTCCCGGTAATCCGTATTTGCA (site CTGGAGACTTG),0.473
8,CTGGATACATGGACCGGTTTTCCCGGTAATCCGTATTTGCA (site CTGGATACTTG),1.81
9,CTGGATACATGGACCGGTTTTCCCGGTAATCCGTATTTGTC (site CTGGATACTGA),1.89
10,CTGGGACCATGGACCGGTTTTCCCGGTAATCCGTATTTGGT (site CTGGGACCTAC),0.0117
11,CTGGGATCATGGACCGGTTTTCCCGGTAATCCGTATTTGCT (site CTGGGATCTAG),1.9
12,CTGGGCGCATGGACCGGTTTTCCCGGTAATCCGTATTTGTA (site CTGGGCGCTTA),1.62
13,CTGGTATCATGGACCGGTTTTCCCGGTAATCCGTATTTGAA (site CTAGTATCTGT),2.25
14,CTGGTATCATGGACCGGTTTTCCCGGTAATCCGTATTTGAA (site CTGGTATCTTT),2.5
15,CTGGTTACATGGACCGGTTTTCCCGGTAATCCGTATTTGAG (site CTGGTTACTCT),1.7
16,CTGTCAGCATGGACCGGTTTTCCCGGTAATCCGTATTTGGG (site CTGTCAGCTCC),0.0174
17,CTGTCCGCATGGACCGGTTTTCCCGGTAATCCGTATTTGAT (site CTGTCCGCTAT),1.96
18,CTGTCGACATGGACCGGTTTTCCCGGTAATCCGTATTTGGG (site CAGTCGACTCC),0.00865
19,CTGTCGACATGGACCGGTTTTCCCGGTAATCCGTATTTGGG (site CCGTCGACTCC),0.0205
20,CTGTCGACATGGACCGGTTTTCCCGGTAATCCGTATTTGGG (site CGGTCGACTCC),0.012
21,CTGTCGACATGGACCGGTTTTCCCGGTAATCCGTATTTGGG (site CTGTCGACTCC),0.0289
22,CTGTCTACATGGACCGGTTTTCCCGGTAATCCGTATTTGTT (site CTGTCTACTAA),0.252
23,CTGTGATCATGGACCGGTTTTCCCGGTAATCCGTATTTGAA (site CTGTGATCTTT),2.65
24,CTGTGTGCATGGACCGGTTTTCCCGGTAATCCGTATTTGGT (site CTGTGTGCTAC),1.44
25,CTGTTTGCATGGACCGGTTTTCCCGGTAATCCGTATTTGAA (site CTGTTTGCTTT),1.66

row,Sequence,recombinant UMI read abundance (log10)
1,CTTCCGACATGGACCGGTTTTCCCGGTAATCCGTATTTGGA (site CTTCCGACTTC),0.0169
2,CTTCCGGCATGGACCGGTTTTCCCGGTAATCCGTATTTGAT (site CTTCCGGCTAT),1.14
3,CTTCGCTCATGGACCGGTTTTCCCGGTAATCCGTATTTGTA (site CTTCACTCTTA),1.14
4,CTTCGCTCATGGACCGGTTTTCCCGGTAATCCGTATTTGTA (site CTTCCCTCTTA),0.0134
5,CTTCGCTCATGGACCGGTTTTCCCGGTAATCCGTATTTGTA (site CTTCGCTCTTA),1.8
6,CTTCGCTCATGGACCGGTTTTCCCGGTAATCCGTATTTGTA (site CTTCTCTCTTA),0.00289
7,CTTCTAACATGGACCGGTTTTCCCGGTAATCCGTATTTGGA (site CTACTAACTTC),0.0127
8,CTTCTAACATGGACCGGTTTTCCCGGTAATCCGTATTTGGA (site CTCCTAACTTC),0.00424
9,CTTCTAACATGGACCGGTTTTCCCGGTAATCCGTATTTGGA (site CTGCTAACTTC),0.00962
10,CTTCTAACATGGACCGGTTTTCCCGGTAATCCGTATTTGGA (site CTTCTAACTTC),0.0115
11,CTTCTCTCATGGACCGGTTTTCCCGGTAATCCGTATTTGAA (site CTTCTCTCTTA),0
12,CTTCTCTCATGGACCGGTTTTCCCGGTAATCCGTATTTGAA (site CTTCTCTCTTC),0.199
13,CTTCTCTCATGGACCGGTTTTCCCGGTAATCCGTATTTGAA (site CTTCTCTCTTG),0
14,CTTCTCTCATGGACCGGTTTTCCCGGTAATCCGTATTTGAA (site CTTCTCTCTTT),0.96
15,CTTGACACATGGACCGGTTTTCCCGGTAATCCGTATTTGAC (site CTTGACACTGT),0.445
16,CTTGCCCCATGGACCGGTTTTCCCGGTAATCCGTATTTGTG (site CTTGCCCCTCA),0.0167
17,CTTGTACCATGGACCGGTTTTCCCGGTAATCCGTATTTGAC (site CTAGTATCTGT),0
18,CTTGTACCATGGACCGGTTTTCCCGGTAATCCGTATTTGAC (site CTTGTACCTGT),0
19,CTTGTGGCATGGACCGGTTTTCCCGGTAATCCGTATTTGGG (site CTTGTGGCTCC),0.00701
20,CTTGTTGCATGGACCGGTTTTCCCGGTAATCCGTATTTGGT (site CTTGTTGCTAC),1.26
21,CTTTCGCCATGGACCGGTTTTCCCGGTAATCCGTATTTGCT (site CTTTCGCCTAG),0.0294
22,CTTTCTCCATGGACCGGTTTTCCCGGTAATCCGTATTTGCT (site CTTTCTCCTAG),1.82
23,CTTTGCCCATGGACCGGTTTTCCCGGTAATCCGTATTTGAG (site CTTTGCCCTCT),0.0229
24,CTTTGGGCATGGACCGGTTTTCCCGGTAATCCGTATTTGTC (site CTTTGGGCTGA),0
25,CTTTTGGCATGGACCGGTTTTCCCGGTAATCCGTATTTGCT (site CATTTGGCTAG),0
